Measured values taken from publication PMC3252702 (ChemMedChem, 2010).

How the values were obtained:
EtCRK2 = EtCRK2 (Eimeria tenella, UniProt Q6R8F0); test: TR-FRET; type: biochemical
HsCDK2 = HsCDK2 (Homo sapiens, UniProt P24941); test: biochemical
[1] = test system: E. tenella schizont development; test: Schizont maturation assay; type: cell-based, Eimeria tenella; conditions: n=2

EtCRK2, sequence (Q6R8F0 1-296): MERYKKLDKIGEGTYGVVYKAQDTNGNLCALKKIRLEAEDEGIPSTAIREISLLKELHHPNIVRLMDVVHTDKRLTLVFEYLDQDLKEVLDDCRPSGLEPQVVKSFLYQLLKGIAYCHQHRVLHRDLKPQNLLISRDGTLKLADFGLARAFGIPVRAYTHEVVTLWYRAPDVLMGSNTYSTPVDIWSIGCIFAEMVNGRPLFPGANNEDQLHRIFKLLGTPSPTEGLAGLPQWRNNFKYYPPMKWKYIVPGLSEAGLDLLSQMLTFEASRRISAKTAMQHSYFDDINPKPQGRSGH

SMILES	IC50 (EtCRK2) [µM]	Ki (EtCRK2) [µM]	IC50 (HsCDK2) [µM]	Ki (HsCDK2) [µM]	inhibition of E. tenella schizont development ([1]; 150 nM)	inhibition of E. tenella schizont development ([1]; 300 nM)	inhibition of E. tenella schizont development ([1]; concentrations below 80 nM)
O=C(O)CN1C(=O)/C(=C2\SC(=S)NC2=O)c2ccccc21 [BES062021, 2-[(3Z)-2-oxo-3-(4-oxo-2-thioxo-thiazolidin-5-ylidene)indolin-1-yl]acetic acid]	23 ± 14	16 ± 9	26 ± 19	17 ± 8	–	–	–
CN1CC[C@H](c2c(O)cc(O)c3c(=O)cc(-c4ccccc4Cl)oc23)[C@H](O)C1 [Flavopiridol, 2-(2-Chlorophenyl)-5,7-dihydroxy-8-[(3S,4R)-3-hydroxy-1-methyl-4-piperidinyl]-4H-1-benzopyran-4-one]	–	–	–	–	fully inhibited	fully inhibited	no inhibitory effects
CCN(CC)S(=O)(=O)c1ccc2c3c(cccc13)C(=O)N2 [BES143551, N,N-diethyl-2-oxo-1,2-dihydrobenzo[cd]indole-6-sulfonamide]	36 ± 8	6 ± 2	12 ± 7	2 ± 1	–	–	–
Cc1c(CCC(=O)O)c(=O)n2c([nH]c3ccccc32)c1C#N [BES241415, 3-(4-cyano-3-methyl-1-oxo-5H-pyrido[1,2-a]benzimidazol-2-yl)propanoic acid]	61 ± 27	83 ± 29	–	–	–	–	–
O=C1NC(=Nc2nc3cc([N+](=O)[O-])ccc3[nH]2)NC1=O [BES252034, 2-[(5-nitro-1H-benzimidazol-2-yl)imino]imidazolidine-4,5-dione]	15 ± 3	8 ± 2	35 ± 3	8 ± 2	–	–	–
